# Data reported in US10004701B2, “Methods and compositions for treating infection” (UNIVERSITY OF ROCHESTER, priority 2012, dated 2018).
# Where a name gives a salt, the structure may show the parent alone. Read-outs that look alike come from different tables or passages of the source.
# How the values were obtained:
# Assay in all cases: AK assay 384-well format, Prestwick library screening
# E. faecium = format: cell-based, Enterococcus faecium; settings: 50 μM final drug concentration; for fold induction at 50 µM: Enterococcus faecium, 3 h
# [1] = tested on: S. aureus strain USA300-0114; format: cell-based, Staphylococcus aureus; settings: 50 μM final drug concentration; for fold induction at 50 µM: Staphylococcus aureus, USA300, 3 h
# K. pneumoniae = format: cell-based, Klebsiella pneumoniae; settings: 50 μM final drug concentration; for fold induction at 50 µM: Klebsiella pneumoniae, 3 h
# [2] = tested on: A. baumannii strain 98-37-09; format: cell-based, Acinetobacter baumannii; settings: 50 μM final drug concentration; for fold induction at 50 µM: Acinetobacter baumannii, 983709, 3 h
# P. aeruginosa = format: cell-based, Pseudomonas aeruginosa; settings: 50 μM final drug concentration; for fold induction at 50 µM: Pseudomonas aeruginosa, 3 h
# E. cloacae = format: cell-based, Enterobacter cloacae; settings: 50 μM final drug concentration; for fold induction at 50 µM: Enterobacter cloacae, 3 h
# E. coli = format: cell-based, Escherichia coli; settings: 50 μM final drug concentration; for fold induction at 50 µM: Escherichia coli, 3 h
# [3] = 384-well format, cutoff for positive-scoring molecules 3-fold increase
# [4] = planktonic E. faecium, cutoff for positive-scoring molecules 3-fold increase, read-out: AK-based Prestwick Library Screening Results, E. faecium (increase in extracellular AK activity)
# [5] = planktonic S. aureus, cutoff for positive-scoring molecules 3-fold increase, read-out: AK-based Prestwick Library Screening Results, S. aureus (increase in extracellular AK activity)
# [6] = planktonic K. pneumoniae, cutoff for positive-scoring molecules 3-fold increase, read-out: AK-based Prestwick Library Screening Results, K. pneumoniae (increase in extracellular AK activity)
# [7] = planktonic A. baumannii, cutoff for positive-scoring molecules 3-fold increase, read-out: AK-based Prestwick Library Screening Results, A. baumannii (increase in extracellular AK activity)
# [8] = planktonic P. aeruginosa, cutoff for positive-scoring molecules 3-fold increase, read-out: AK-based Prestwick Library Screening Results, P. aeruginosa (increase in extracellular AK activity)
# [9] = planktonic E. cloacae, cutoff for positive-scoring molecules 3-fold increase, read-out: AK-based Prestwick Library Screening Results, E. cloacae (increase in extracellular AK activity)
# [10] = planktonic E. coli, cutoff for positive-scoring molecules 3-fold increase, read-out: AK-based Prestwick Library Screening Results, E. coli (increase in extracellular AK activity)
# [11] = 384-well format, cutoff for positive-scoring molecules 3-fold increase, read-out: AK-based Prestwick Library Screening Results, E. faecium (increase in extracellular AK activity)
# [12] = 384-well format, cutoff for positive-scoring molecules 3-fold increase, read-out: AK-based Prestwick Library Screening Results, S. aureus (increase in extracellular AK activity)
# [13] = 384-well format, cutoff for positive-scoring molecules 3-fold increase, read-out: AK-based Prestwick Library Screening Results, K. pneumoniae (increase in extracellular AK activity)
# [14] = 384-well format, cutoff for positive-scoring molecules 3-fold increase, read-out: AK-based Prestwick Library Screening Results, A. baumannii (increase in extracellular AK activity)
# [15] = 384-well format, cutoff for positive-scoring molecules 3-fold increase, read-out: AK-based Prestwick Library Screening Results, P. aeruginosa (increase in extracellular AK activity)
# [16] = 384-well format, cutoff for positive-scoring molecules 3-fold increase, read-out: AK-based Prestwick Library Screening Results, E. cloacae (increase in extracellular AK activity)
# [17] = 384-well format, cutoff for positive-scoring molecules 3-fold increase, read-out: AK-based Prestwick Library Screening Results, E. coli (increase in extracellular AK activity)
# [18] = planktonic E. faecium, positive cutoff 3-fold increase, read-out: AK-based Prestwick library screening result, E. faecium (fold increase in extracellular AK activity)
# [19] = planktonic S. aureus, positive cutoff 3-fold increase, read-out: AK-based Prestwick library screening result, S. aureus (fold increase in extracellular AK activity)
# [20] = planktonic K. pneumoniae, positive cutoff 3-fold increase, read-out: AK-based Prestwick library screening result, K. pneumoniae (fold increase in extracellular AK activity)
# [21] = planktonic A. baumannii, positive cutoff 3-fold increase, read-out: AK-based Prestwick library screening result, A. baumannii (fold increase in extracellular AK activity)
# [22] = planktonic P. aeruginosa, positive cutoff 3-fold increase, read-out: AK-based Prestwick library screening result, P. aeruginosa (fold increase in extracellular AK activity)
# [23] = planktonic E. cloacae, positive cutoff 3-fold increase, read-out: AK-based Prestwick library screening result, E. cloacae (fold increase in extracellular AK activity)
# [24] = planktonic E. coli, positive cutoff 3-fold increase, read-out: AK-based Prestwick library screening result, E. coli (fold increase in extracellular AK activity)
smiles,measurement,setting,value
"C[C@H]1C[C@@H]2[C@H]([C@@H](O)C[C@@]3(C)[C@H]2CC[C@]3(O)C(=O)CO)[C@@]2(C)C=CC(=O)C=C12 [Methylprednisolone, 6-alpha]","AK-based Prestwick Library Screening Results, E. faecium (increase in extracellular AK activity)",E. faecium; [3],1.0
same,"AK-based Prestwick Library Screening Results, S. aureus (increase in extracellular AK activity)",[1]; [3],0.8
same,"AK-based Prestwick Library Screening Results, K. pneumoniae (increase in extracellular AK activity)",K. pneumoniae; [3],0.7
same,"AK-based Prestwick Library Screening Results, A. baumannii (increase in extracellular AK activity)",[2]; [3],0.9
same,"AK-based Prestwick Library Screening Results, P. aeruginosa (increase in extracellular AK activity)",P. aeruginosa; [3],0.9
same,"AK-based Prestwick Library Screening Results, E. cloacae (increase in extracellular AK activity)",E. cloacae; [3],1.3
same,"AK-based Prestwick Library Screening Results, E. coli (increase in extracellular AK activity)",E. coli; [3],0.8
CN1CCN(C(c2ccccc2)c2ccccc2)CC1 [Cyclizine hydrochloride],fold induction at 50 µM,E. faecium; [4],1
same,fold induction at 50 µM,[1]; [5],0.9
same,fold induction at 50 µM,K. pneumoniae; [6],0.8
same,fold induction at 50 µM,[2]; [7],1
same,fold induction at 50 µM,P. aeruginosa; [8],0.9
same,fold induction at 50 µM,E. cloacae; [9],0.9
same,fold induction at 50 µM,E. coli; [10],0.9
CCCOc1ccc(C(=O)OCCN(CC)CC)cc1N [Proparacaine hydrochloride],fold induction at 50 µM,"E. faecium; cutoff for positive-scoring molecules 3-fold increase, read-out: AK-based Prestwick Library Screening Results, E. faecium (fold increase in extracellular AK activity)",1
same,fold induction at 50 µM,"[1]; cutoff for positive-scoring molecules 3-fold increase, read-out: AK-based Prestwick Library Screening Results, S. aureus (fold increase in extracellular AK activity)",1.2
same,fold induction at 50 µM,"K. pneumoniae; cutoff for positive-scoring molecules 3-fold increase, read-out: AK-based Prestwick Library Screening Results, K. pneumoniae (fold increase in extracellular AK activity)",1.1
same,fold induction at 50 µM,"[2]; cutoff for positive-scoring molecules 3-fold increase, read-out: AK-based Prestwick Library Screening Results, A. baumannii (fold increase in extracellular AK activity)",1.4
same,fold induction at 50 µM,"P. aeruginosa; cutoff for positive-scoring molecules 3-fold increase, read-out: AK-based Prestwick Library Screening Results, P. aeruginosa (fold increase in extracellular AK activity)",1.1
same,fold induction at 50 µM,"E. cloacae; cutoff for positive-scoring molecules 3-fold increase, read-out: AK-based Prestwick Library Screening Results, E. cloacae (fold increase in extracellular AK activity)",1.2
same,fold induction at 50 µM,"E. coli; cutoff for positive-scoring molecules 3-fold increase, read-out: AK-based Prestwick Library Screening Results, E. coli (fold increase in extracellular AK activity)",1.3
C=C1CC[C@H](O)C/C1=C/C=C1\CCC[C@]2(C)[C@@H]([C@H](C)/C=C/[C@H](C)C(C)C)CC[C@@H]12 [Calciferol],fold induction at 50 µM,E. faecium; [4],0.9
same,fold induction at 50 µM,[1]; [5],0.5
same,fold induction at 50 µM,K. pneumoniae; [6],0.7
same,fold induction at 50 µM,[2]; [7],0.7
same,fold induction at 50 µM,P. aeruginosa; [8],0.7
same,fold induction at 50 µM,E. cloacae; [9],0.7
same,fold induction at 50 µM,E. coli; [10],0.8
COc1cccc2c1C(=O)c1c(O)c3c(c(O)c1C2=O)C[C@@](O)(C(C)=O)C[C@@H]3O[C@H]1C[C@H](N)[C@H](O)[C@H](C)O1 [Daunorubicin hydrochloride],fold induction at 50 µM,"E. faecium; planktonic E. faecium, […], read-out: AK-based Prestwick Library Screening Results, E. faecium (increase in extracellular AK activity)",2.3
same,fold induction at 50 µM,"[1]; planktonic S. aureus, […], read-out: AK-based Prestwick Library Screening Results, S. aureus (increase in extracellular AK activity)",2.1
same,fold induction at 50 µM,"K. pneumoniae; planktonic K. pneumoniae, […], read-out: AK-based Prestwick Library Screening Results, K. pneumoniae (increase in extracellular AK activity)",0.5
same,fold induction at 50 µM,"[2]; planktonic A. baumannii, […], read-out: AK-based Prestwick Library Screening Results, A. baumannii (increase in extracellular AK activity)",0.6
same,fold induction at 50 µM,"P. aeruginosa; planktonic P. aeruginosa, […], read-out: AK-based Prestwick Library Screening Results, P. aeruginosa (increase in extracellular AK activity)",0.5
same,fold induction at 50 µM,"E. cloacae; planktonic E. cloacae, […], read-out: AK-based Prestwick Library Screening Results, E. cloacae (increase in extracellular AK activity)",0.6
same,fold induction at 50 µM,"E. coli; planktonic E. coli, […], read-out: AK-based Prestwick Library Screening Results, E. coli (increase in extracellular AK activity)",0.9
CCC(C)(CN(C)C)OC(=O)c1ccccc1.Cl (centres unmarked) [Amyleine hydrochloride],"AK-based Prestwick Library Screening Results, E. faecium (increase in extracellular AK activity)","E. faecium; 384-well format, […]",1.1
same,"AK-based Prestwick Library Screening Results, S. aureus (increase in extracellular AK activity)","[1]; 384-well format, […]",1.1
same,"AK-based Prestwick Library Screening Results, K. pneumoniae (increase in extracellular AK activity)","K. pneumoniae; 384-well format, […]",0.8
same,"AK-based Prestwick Library Screening Results, A. baumannii (increase in extracellular AK activity)","[2]; 384-well format, […]",1.1
same,"AK-based Prestwick Library Screening Results, P. aeruginosa (increase in extracellular AK activity)","P. aeruginosa; 384-well format, […]",0.9
same,"AK-based Prestwick Library Screening Results, E. cloacae (increase in extracellular AK activity)","E. cloacae; 384-well format, […]",1.2
same,"AK-based Prestwick Library Screening Results, E. coli (increase in extracellular AK activity)","E. coli; 384-well format, […]",1.4
CC(CCc1ccccc1)NCC(O)c1ccc(O)c(C(N)=O)c1 (centres unmarked) [Labetalol hydrochloride],fold induction at 50 µM,E. faecium; [11],0.9
same,fold induction at 50 µM,[1]; [12],0.8
same,fold induction at 50 µM,K. pneumoniae; [13],0.7
same,fold induction at 50 µM,[2]; [14],0.9
same,fold induction at 50 µM,P. aeruginosa; [15],0.9
same,fold induction at 50 µM,E. cloacae; [16],1.3
same,fold induction at 50 µM,E. coli; [17],0.9
CCCCNc1c(C(=O)OCC)c(C)nc2c1cnn2CC [Tracazolate hydrochloride],fold induction at 50 µM,E. faecium; [18],1.1
same,fold induction at 50 µM,[1]; [19],0.5
same,fold induction at 50 µM,K. pneumoniae; [20],0.6
same,fold induction at 50 µM,[2]; [21],0.8
same,fold induction at 50 µM,P. aeruginosa; [22],0.6
same,fold induction at 50 µM,E. cloacae; [23],0.7
same,fold induction at 50 µM,E. coli; [24],0.5
CN1C[C@H](CO)C=C2c3cccc4[nH]cc(c34)C[C@H]21 [Lysergol],"AK-based Prestwick Library Screening Results, E. faecium (fold increase in extracellular AK activity)","E. faecium; planktonic, […]",0.9
same,"AK-based Prestwick Library Screening Results, S. aureus (fold increase in extracellular AK activity)","[1]; planktonic, […]",0.9
same,"AK-based Prestwick Library Screening Results, K. pneumoniae (fold increase in extracellular AK activity)","K. pneumoniae; planktonic, […]",0.8
same,"AK-based Prestwick Library Screening Results, A. baumannii (fold increase in extracellular AK activity)","[2]; planktonic, […]",1.0
same,"AK-based Prestwick Library Screening Results, P. aeruginosa (fold increase in extracellular AK activity)","P. aeruginosa; planktonic, […]",1.1
same,"AK-based Prestwick Library Screening Results, E. cloacae (fold increase in extracellular AK activity)","E. cloacae; planktonic, […]",1.6
same,"AK-based Prestwick Library Screening Results, E. coli (fold increase in extracellular AK activity)","E. coli; planktonic, […]",1.1
c1ccc2c(CC3=NCCN3)cccc2c1 [Naphazoline hydrochloride],fold induction at 50 µM,E. faecium; [11],1.1
same,fold induction at 50 µM,[1]; [12],1
same,fold induction at 50 µM,K. pneumoniae; [13],0.8
same,fold induction at 50 µM,[2]; [14],1.1
same,fold induction at 50 µM,P. aeruginosa; [15],1
same,fold induction at 50 µM,E. cloacae; [16],1.5
same,fold induction at 50 µM,E. coli; [17],1.3
c1cnc(N2CCN(Cc3ccc4c(c3)OCO4)CC2)nc1 [Piribedil hydrochloride],fold induction at 50 µM,E. faecium; [18],0.9
same,fold induction at 50 µM,[1]; [19],0.6
same,fold induction at 50 µM,K. pneumoniae; [20],0.5
same,fold induction at 50 µM,[2]; [21],0.7
same,fold induction at 50 µM,P. aeruginosa; [22],0.6
same,fold induction at 50 µM,E. cloacae; [23],1
same,fold induction at 50 µM,E. coli; [24],0.6
